# Laboratory results from US20210220374A1, “METHODS OF TREATING TE[…]” (Clarus Therapeutics, Inc., priority 2013, published 2021).
# Values joined by “and” are separate entries in the source; they are usually repeats but may differ in a detail not shown here. Equal values may be shown once.
# Assays:
# Type in all cases: in vivo, hypogonadal men
# [1] = Example 4 food effects study of Formulation B
# Method: Subjects were randomized to receive the drug in the fasting state or 30 minutes after consumption of meals containing ˜800 calories with specific amounts of fat (wt %): very low fat (6-10%); low fat (20%); “normal” diet fat (30%); or high fat (50%). The “normal” diet was, a priori, established as the comparator (i.e., reference diet) for purposes of statistical comparisons. Serial blood samples were collected for a total of 24 hours after drug administration to determine serum testosterone and dihydrotestosterone (DHT) levels by liquid chromatography-mass spectroscopy (LC/MS/MS).
# [2] = Seven-day repeat-dose pharmacokinetic study (study LOT-A), TU BID; settings: for Baseline-corrected Cavg / Tmax: serum T
# Method: The probability model was based on the pharmacokinetic results obtained from the hypogonadal patient population that participated in the two multi-dose TU treatments in study LOT-A. As noted previously, 29 hypogonadal males participated in the study, 28 of them completed Treatment Period 1 (300 mg T, as TU, BID) and 24 of them completed Treatment Period 3 (200 mg T, as TU, BID).
# Formulation B was studied for its acute tolerability and steady-state serum pharmacokinetic profile at two doses administered twice-daily to hypogonadal men. The study was designed as an open-label, repeat dose, cross-over, pharmacokinetic study (with food effect examined in one arm).
# Twenty nine (29) hypogonadal men were enrolled after giving written informed consent, 24 of which completed the study. Each subject who completed the study received a regimen of Formulation B as follows: […]
# 1. 7 daily doses of 600 mg T as TU BID (300 mg/dose), i.e., 3 capsules/dose 2. 8 daily doses of 400 mg T as TU BID (200 mg/dose)
# Doses were administered as capsules to subjects 30 minutes after initiation of meals (breakfast and dinner), except for Day 8, when the morning dose was administered fasting.
# [3] = Optimal sampling time: pooled steady-state serum T data of LOT-AA and LOT-BB, 200 mg T BID as TU
# Method: An investigation was conducted to identify a single optimal sampling time for monitoring the responsiveness of hypogonadal male patients subjects to chronic BID dosing of T using a SEDDS formulation of TU. Concentration data and derived pharmacokinetic parameters for 41 subjects from two studies (LOT-AA and LOT-BB) where subjects received 200 mg BID of T, as TU, for at least seven days were used in this investigation. Correlation and contingency table approaches were used in the investigation.
# Concentration data and pharmacokinetic parameters from hypogonadal male subjects that participated in study LOT-AA and study LOT-BB were combined into a single data set. From study LOT-AA, only the information from Day 7 of Treatment 3 (8 days of treatment with 200 mg BID of T, as TU) was used. Study LOT-AA contributed data from 26 subjects treated for 7 days, and study LOT-BBBB contributed data from 15 subjects treated for 28 days with 200 mg BID of T, as TU. Combining of the data from these two groups of subjects is supported by the finding from study LOT-BBBB that T steady-state is reached in 5-7 days.
# The sample collection times for these two studies both spanned a 12-hour window, but not all sample collection times were common to both studies. LOT-AA used sample collection times of 0, 1, 2, 4, 8 and 12 hours; LOT-BBBB used sample collection times of 0, 1.5, 3, 4, 5, 6, 8 and 12 hours. The current analysis used the superset of the combined set of collection times (0, 1, 1.5, 2, 3, 4, 5, 6, 8 and 12 hours). Concentration values that were missing for a subject in either of the data sets at a particular sample collection time were estimated by linear interpolation, using the existing nearest neighbor concentration values for that subject, i.e., interpolation of missing data was subject-specific.
# [4] = LOT-AA subjects, estimated by linear interpolation
# [5] = LOT-BB subjects, estimated by linear interpolation
compound,measurement,setting,value
"CCCCCCCCCCC(=O)O[C@H]1CC[C@H]2[C@@H]3CCC4=CC(=O)CC[C@]4(C)[C@H]3CC[C@]12C [TU, testosterone undecanoate]",Difference in serum T response,[1]; high-fat vs normal-fat meal,< 30%
same,"90% confidence interval, serum T PK parameters","[1]; low-fat vs normal fat diet, single 300 mg T dose",85-125%
same,Decrease in serum T exposures (Cmax and AUC),[2]; fasting conditions vs meal,greater than 50%
same,DHT concentrations as percent of T concentrations,[2]; in vivo,11-34%
same,Pre-dose steady-state estradiol concentrations,[2]; in vivo,20 to 30 pg/mL
same,Mean baseline T concentration (endogenous T production),"[2]; prior to Treatment Period 2, after washout",152 ng/dL
same,Mean baseline T concentration (endogenous T production),"[2]; prior to Treatment Period 3, after washout",139 ng/dL
same,Mean baseline T concentration (endogenous T production),"[2]; prior to Treatment Period 4, after washout",145 ng/dL
same,Baseline-corrected Cavg,[2]; 200 mg BID,379 ± 255
same,Baseline-corrected Cavg,[2]; 300 mg BID,586 ± 330
same,Tmax,"[2]; 300 mg BID, AM dose",4.5 ± 2.1 h
same,Tmax,"[2]; 300 mg BID, PM dose",17.9 ± 2.6 h
same,Subjects with serum T Cavg in the eugonadal range over 24 hours,"[2]; simulated 24-hour profile from 12-hour data, 200 mg T (as TU) BID, fed",77%
same,"T concentration 3 hr, individual subjects",[3]; [4],777 ng/dL and 785 ng/dL and 590 ng/dL and 433 ng/dL and 984 ng/dL and 1030 ng/dL and 1345 ng/dL and 936 ng/dL and 164 ng/dL and 183 ng/dL and 193 ng/dL and 353 ng/dL and 844 ng/dL and 700 ng/dL and 411 ng/dL and 891 ng/dL and 438 ng/dL and 271 ng/dL and 243 ng/dL and 160 ng/dL and 415 ng/dL and 308 ng/dL and 1270 ng/dL and 918 ng/dL and 837 ng/dL and 546 ng/dL
same,"T concentration 5 hr, individual subjects",[3]; [4],978 ng/dL and 778 ng/dL and 686 ng/dL and 595 ng/dL and 865 ng/dL and 847 ng/dL and 1289 ng/dL and 886 ng/dL and 209 ng/dL and 248 ng/dL and 324 ng/dL and 311 ng/dL and 1065 ng/dL and 788 ng/dL and 418 ng/dL and 1012 ng/dL and 579 ng/dL and 427 ng/dL and 450 ng/dL and 205 ng/dL and 380 ng/dL and 503 ng/dL and 1533 ng/dL and 740 ng/dL and 768 ng/dL and 969 ng/dL
same,"T concentration 6 hr, individual subjects",[3]; [4],856 ng/dL and 606 ng/dL and 540 ng/dL and 590 ng/dL and 690 ng/dL and 653 ng/dL and 1048 ng/dL and 703 ng/dL and 232 ng/dL and 248 ng/dL and 423 ng/dL and 314 ng/dL and 789 ng/dL and 648 ng/dL and 415 ng/dL and 1145 ng/dL and 503 ng/dL and 539 ng/dL and 622 ng/dL and 216 ng/dL and 367 ng/dL and 639 ng/dL and 1296 ng/dL and 597 ng/dL and 588 ng/dL and 1283 ng/dL
same,"T concentration […], individual subjects",[3]; [4],371 ng/dL and 435 ng/dL and 297 ng/dL and 272 ng/dL and 632 ng/dL and 595 ng/dL and 845 ng/dL and 802 ng/dL and 162 ng/dL and 87 ng/dL and 150 ng/dL and 427 ng/dL and 214 ng/dL and 312 ng/dL and 454 ng/dL and 1081 ng/dL and 267 ng/dL and 241 ng/dL and 204 ng/dL and 116 ng/dL and 492 ng/dL and 237 ng/dL and 757 ng/dL and 654 ng/dL and 457 ng/dL and 403 ng/dL
same,"T concentration 1 hr, individual subjects","[3]; LOT-AA subjects, observed",287 ng/dL and 251 ng/dL and 246 ng/dL and 280 ng/dL and 335 ng/dL and 170 ng/dL and 530 ng/dL and 801 ng/dL and 183 ng/dL and 57 ng/dL and 140 ng/dL and 456 ng/dL and 80 ng/dL and 153 ng/dL and 506 ng/dL and 1260 ng/dL and 314 ng/dL and 256 ng/dL and 199 ng/dL and 105 ng/dL and 547 ng/dL and 225 ng/dL and 744 ng/dL and 354 ng/dL and 187 ng/dL and 368 ng/dL
same,"T concentration 2 hr, individual subjects","[3]; LOT-AA subjects, observed",454 ng/dL and 619 ng/dL and 347 ng/dL and 264 ng/dL and 928 ng/dL and 1020 ng/dL and 1160 ng/dL and 802 ng/dL and 140 ng/dL and 116 ng/dL and 159 ng/dL and 397 ng/dL and 348 ng/dL and 471 ng/dL and 402 ng/dL and 902 ng/dL and 219 ng/dL and 226 ng/dL and 208 ng/dL and 126 ng/dL and 437 ng/dL (2×) and 248 ng/dL and 770 ng/dL and 953 ng/dL and 726 ng/dL
same,"T concentration 1 hr, individual subjects",[3]; [5],545 ng/dL and 531 ng/dL and 279 ng/dL (2×) and 92 ng/dL and 152 ng/dL and 161 ng/dL and 234 ng/dL and 446 ng/dL and 869 ng/dL and 248 ng/dL and 365 ng/dL and 127 ng/dL and 233 ng/dL and 271 ng/dL
same,"T concentration 2 hr, individual subjects",[3]; [5],506 ng/dL and 725 ng/dL and 490 ng/dL and 149 ng/dL and 168 ng/dL and 394 ng/dL and 281 ng/dL and 812 ng/dL and 770 ng/dL and 461 ng/dL and 274 ng/dL and 166 ng/dL and 350 ng/dL and 346 ng/dL and 349 ng/dL
same,"T concentration 3 hr, individual subjects","[3]; LOT-BB subjects, observed",425 ng/dL and 778 ng/dL and 723 ng/dL and 243 ng/dL and 241 ng/dL and 873 ng/dL and 360 ng/dL and 1440 ng/dL and 684 ng/dL and 908 ng/dL and 179 ng/dL and 259 ng/dL and 553 ng/dL and 461 ng/dL and 445 ng/dL
same,"T concentration 5 hr, individual subjects","[3]; LOT-BB subjects, observed",486 ng/dL and 1020 ng/dL and 332 ng/dL and 125 ng/dL and 1230 ng/dL and 714 ng/dL and 1270 ng/dL and 1690 ng/dL and 514 ng/dL and 999 ng/dL and 214 ng/dL and 458 ng/dL and 1330 ng/dL and 289 ng/dL and 507 ng/dL
same,"T concentration 6 hr, individual subjects","[3]; LOT-BB subjects, observed",671 ng/dL and 1660 ng/dL and 292 ng/dL and 238 ng/dL and 828 ng/dL and 773 ng/dL and 972 ng/dL and 1340 ng/dL and 593 ng/dL and 538 ng/dL and 620 ng/dL and 351 ng/dL and 1420 ng/dL and 320 ng/dL and 441 ng/dL
same,"T concentration […], individual subjects","[3]; LOT-BB subjects, observed",547 ng/dL and 699 ng/dL and 374 ng/dL and 102 ng/dL and 132 ng/dL and 155 ng/dL and 242 ng/dL and 498 ng/dL and 813 ng/dL and 237 ng/dL and 321 ng/dL and 120 ng/dL and 249 ng/dL and 288 ng/dL and 301 ng/dL
same,"C(0), Max","[3]; serum T, N 41",1600 ng/dL
same,"C(0), Mean","[3]; serum T, N 41",363 ng/dL
same,"C(0), Median","[3]; serum T, N 41",244 ng/dL
same,"C(0), Min","[3]; serum T, N 41",61.0 ng/dL
same,"C(1), Max","[3]; serum T, N 41",1260 ng/dL
same,"C(1), Mean","[3]; serum T, N 41",338 ng/dL
same,"C(1), Median","[3]; serum T, N 41",271 ng/dL
same,"C(1), Min","[3]; serum T, N 41",57.3 ng/dL
same,"C(1.5), Max","[3]; serum T, N 41",1081 ng/dL
same,"C(1.5), Mean","[3]; serum T, N 41",391 ng/dL
same,"C(1.5), Median","[3]; serum T, N 41",312 ng/dL
same,"C(1.5), Min","[3]; serum T, N 41",86.6 ng/dL
same,"C(2), Max","[3]; serum T, N 41",1160 ng/dL
